{"source": "ChEMBL document CHEMBL5537110", "about": "“SIRT1-dependent mitochondrial biogenesis supports therapeutic effects of 4-butyl-polyhydroxybenzophenone compounds against NAFLD” (Eur J Med Chem, 2023)", "key": {"EA.hy 926": {"tested_on": "EA.hy 926", "assay": "Cytoprotective activity against H2O2-induced toxicity in human EA.hy 926 cells assessed as protective rate pretreated with compound for 4 hrs followed by incubation with H2O2 for 2 hrs by absorbance based analysis", "type": "functional, cell-based"}, "[1]": {"molecular_target": "T1, Peroxisome proliferator-activated receptor gamma coactivator 1-alpha (Homo sapiens) (UniProt Q9UBK2)", "T1 sequence (whole entry)": "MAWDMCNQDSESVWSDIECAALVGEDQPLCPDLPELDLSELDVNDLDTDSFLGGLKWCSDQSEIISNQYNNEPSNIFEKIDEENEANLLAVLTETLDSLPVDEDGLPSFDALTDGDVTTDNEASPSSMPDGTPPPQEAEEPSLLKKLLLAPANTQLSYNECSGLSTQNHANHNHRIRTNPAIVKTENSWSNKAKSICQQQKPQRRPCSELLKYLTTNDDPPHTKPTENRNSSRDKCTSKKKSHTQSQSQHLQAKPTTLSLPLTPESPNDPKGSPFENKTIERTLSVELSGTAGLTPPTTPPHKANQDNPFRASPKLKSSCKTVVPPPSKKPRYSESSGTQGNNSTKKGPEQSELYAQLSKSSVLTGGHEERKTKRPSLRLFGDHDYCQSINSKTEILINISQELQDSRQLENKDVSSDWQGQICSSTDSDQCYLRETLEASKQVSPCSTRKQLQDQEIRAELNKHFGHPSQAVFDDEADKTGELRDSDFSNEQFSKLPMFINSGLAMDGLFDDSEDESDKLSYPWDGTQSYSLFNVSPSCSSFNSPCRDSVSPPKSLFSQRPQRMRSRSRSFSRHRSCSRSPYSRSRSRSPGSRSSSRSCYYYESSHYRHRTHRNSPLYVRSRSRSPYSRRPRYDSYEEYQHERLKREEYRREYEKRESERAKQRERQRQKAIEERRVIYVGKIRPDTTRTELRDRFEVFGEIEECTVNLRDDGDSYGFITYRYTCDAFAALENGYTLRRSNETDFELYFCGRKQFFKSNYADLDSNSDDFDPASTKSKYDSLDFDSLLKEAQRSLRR", "assay": "Binding affinity to PGC1alpha in human HepG2 cells assessed as increase in protein abundance at 80 to 320 uM pretreated with compound for 30 mins followed by proteolysis for 15 mins by DARTS assay", "type": "cell-based", "conditions": "filed as activator, dose 80-320 µM, time 45.0 min"}, "[2]": {"molecular_target": "T2, NAD-dependent protein deacetylase sirtuin-1 (Homo sapiens) (UniProt Q96EB6)", "T2 sequence (whole entry)": "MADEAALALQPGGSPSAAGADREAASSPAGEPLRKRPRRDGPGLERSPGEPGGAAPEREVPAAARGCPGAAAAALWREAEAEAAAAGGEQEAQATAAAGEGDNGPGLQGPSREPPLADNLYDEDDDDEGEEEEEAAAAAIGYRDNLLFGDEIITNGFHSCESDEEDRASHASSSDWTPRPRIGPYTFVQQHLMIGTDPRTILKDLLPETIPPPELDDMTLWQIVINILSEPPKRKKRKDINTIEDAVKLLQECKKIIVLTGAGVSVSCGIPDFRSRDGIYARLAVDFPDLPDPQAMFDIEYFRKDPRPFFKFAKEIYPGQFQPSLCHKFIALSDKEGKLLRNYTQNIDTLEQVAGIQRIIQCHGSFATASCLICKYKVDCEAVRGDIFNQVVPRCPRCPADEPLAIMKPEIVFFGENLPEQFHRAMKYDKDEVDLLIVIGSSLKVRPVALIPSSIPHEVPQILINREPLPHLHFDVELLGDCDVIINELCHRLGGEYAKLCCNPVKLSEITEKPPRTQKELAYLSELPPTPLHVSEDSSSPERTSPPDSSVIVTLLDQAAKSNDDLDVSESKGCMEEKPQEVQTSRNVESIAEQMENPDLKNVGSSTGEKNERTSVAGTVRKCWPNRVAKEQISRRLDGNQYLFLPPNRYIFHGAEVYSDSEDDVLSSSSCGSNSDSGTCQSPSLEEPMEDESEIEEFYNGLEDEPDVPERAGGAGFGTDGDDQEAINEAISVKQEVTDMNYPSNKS", "assay": "Binding affinity to SIRT1 in human HepG2 cells assessed as increase in thermal stabilization of protein at 320 uM pretreated with compound for 30 mins followed by incubation at 40 to 65 degC for 3 mins by CETSA-WB analysis", "type": "cell-based", "conditions": "filed as activator, time 33.0 min"}, "[3]": {"molecular_target": "T1, Peroxisome proliferator-activated receptor gamma coactivator 1-alpha (Homo sapiens)", "assay": "Binding affinity to PGC1alpha in human HepG2 cells assessed as increase in thermal stability of protein pretreated with compound for 30 mins followed by incubation at 50 degC for 3 mins by CETSA-WB analysis", "type": "cell-based", "conditions": "filed as activator, dose 80-320 µM, time 33.0 min"}, "HepG2 [4]": {"tested_on": "HepG2", "assay": "Recovery of mitochondrial biogenesis in 40% FBS-induced steatosis human HepG2 cells model assessed as increase in SIRT1 protein expression incubated for 24 hrs by western blot analysis", "type": "functional, cell-based", "conditions": "dose 0.2-5 µM"}, "HepG2 [5]": {"tested_on": "HepG2", "assay": "Recovery of mitochondrial biogenesis in 40% FBS-induced steatosis human HepG2 cells model assessed as increase in TFAM mRNA expression incubated for 24 hrs by qRT-PCR analysis", "type": "functional, cell-based", "conditions": "dose 0.2-5 µM"}, "HepG2 [6]": {"tested_on": "HepG2", "assay": "Inhibition of oxidative stress in 40% FBS-induced steatosis human HepG2 cells model assessed as reduction in mitochondrial ROS production incubated in steatosis inducing DMEM with 40% FBS medium for 24 hrs followed by compound treatment by MitoSOX Red dye based fluorescence microscopy", "type": "functional, cell-based", "conditions": "Mitochondria, dose 0.2-5 µM"}, "HepG2 [7]": {"tested_on": "HepG2", "assay": "Inhibition of lipid toxicity in 40% FBS-induced steatosis human HepG2 cells model assessed as decrease in triglyceride content at 0.2 to 5 uM incubated with compound for 24 hrs followed by replacement with steatosis inducing DMEM with 40% FBS medium", "type": "functional, cell-based", "conditions": "dose 0.2-5 µM"}, "HepG2 [8]": {"tested_on": "HepG2", "assay": "Inhibition of liver injury in human HepG2 cells assessed as increase in liver protection index by measuring increase in ratio of GSH to GSSG at 0.2 to 5 uM incubated with compound for 24 hrs followed by replacement with steatosis inducing DMEM with 40% FBS medium", "type": "functional, cell-based", "conditions": "dose 0.2-5 µM"}, "Rattus norvegicus [9]": {"tested_on": "Rattus norvegicus", "assay": "Hepatoprotective activity against high fat diet-fed NAFLD Sprague-Dawley rat model assessed as inhibition of diet-induced body weight gain administered intragastrically via gavage for 4 weeks", "type": "functional, organism-based", "conditions": "dose 12.3-61.4 mg/kg, route ig"}, "Rattus norvegicus [10]": {"tested_on": "Rattus norvegicus", "assay": "Hepatoprotective activity against high fat diet-fed NAFLD Sprague-Dawley rat model assessed as decrease in serum ALT level administered intragastrically via gavage for 4 weeks", "type": "functional, organism-based", "conditions": "dose 12.3-61.4 mg/kg, route ig"}, "HepG2 [11]": {"tested_on": "HepG2", "assay": "Induction of SIRT1/PGC1alpha interaction in human HepG2 cells at 5 umol/L by co-immunoprecipitataion analysis", "type": "cell-based", "conditions": "filed as activator, dose 5.0 µmol/L"}, "HepG2 [12]": {"tested_on": "HepG2", "assay": "Induction of mitochondrial biogenesis in human HepG2 cells assessed as mitochondrial ND6 protein expression incubated for 24 hrs in presence of SIRT1 inhibitor, EX527 by western blot analysis", "type": "functional, cell-based"}, "HepG2 [13]": {"tested_on": "HepG2", "assay": "Induction of mitochondrial biogenesis in human HepG2 cells assessed as NRF1 mRNA expression incubated for 24 hrs in presence of SIRT1 inhibitor, EX527 by qRT-PCR analysis", "type": "functional, cell-based"}, "HepG2 [14]": {"tested_on": "HepG2", "assay": "Induction of mitochondrial biogenesis in human HepG2 cells assessed as mitochondrial ND6 mRNA expression incubated for 24 hrs in presence of SIRT1 inhibitor, EX527 by qRT-PCR analysis", "type": "functional, cell-based"}}, "note": "The source made the active and inactive calls. The rule behind the calls is not given here."}
{"compound": "CC(C)(C)c1ccc(C(=O)c2ccc(O)c(O)c2)cc1", "values": [{"measurement": "EC50", "setting": "EA.hy 926", "value": 0.0723, "unit": "µM"}, {"measurement": "Activity", "setting": "[1]", "value": "Active"}, {"measurement": "Activity", "setting": "[2]", "value": "Active"}, {"measurement": "Activity", "setting": "[3]", "value": "Dose-Dependent Effect"}, {"measurement": "Activity", "setting": "HepG2 [4]", "value": "Dose-Dependent Effect"}, {"measurement": "Activity", "setting": "HepG2 [5]", "value": "Dose-Dependent Effect"}, {"measurement": "inhibition", "setting": "HepG2 [6]", "value": "Dose-Dependent Effect"}, {"measurement": "inhibition", "setting": "HepG2 [7]", "value": "Active"}, {"measurement": "inhibition", "setting": "HepG2 [8]", "value": "Active"}, {"measurement": "Activity", "setting": "Rattus norvegicus [9]", "value": "Dose-Dependent Effect"}, {"measurement": "Activity", "setting": "Rattus norvegicus [10]", "value": "Active"}, {"measurement": "Activity", "setting": "HepG2 [11]", "value": "Active"}, {"measurement": "Activity", "setting": "HepG2 [12]", "value": "inactive"}, {"measurement": "Activity", "setting": "HepG2 [13]", "value": "inactive"}, {"measurement": "Activity", "setting": "HepG2 [14]", "value": "inactive"}]}
